Drawing on PubChem BioAssay AID504598 (NMMLSC, 2011), this text covers EC50 and percent span for 21 compounds.

Each structure is given as a SMILES string. pEC50: −log10 of the molar value. Active and inactive are the calls of the source. How the calls were made is not given here.

By EC50 is commonly meant the concentration that produces a half-maximal response. A word on the pEC50: it is −log10 of the EC50, conventionally taken in molar units.

For assay [1], the target named is Bcl-2-like protein 10 (Homo sapiens) (UniProt Q9HD36). The assay is described as follows: Bcl-2 family partner binding disruption – biochemical, powder compounds, wildtype and mutant Bfl1, panel, dose response (AID 504598). The settings on record: Bfl1/BclB peptide binding displacement assay, BclB wildtype; for percent span: stronger effect = higher value.
The target in assay [2] is Bcl-2-related protein A1 (Homo sapiens) (UniProt Q16548). Described as above. To be noted: Bfl1/BclB peptide binding displacement assay; for percent span: stronger effect = higher value.
[3] abbreviates: Bfl1 wildtype, deteriorated Bfl1 protein.

Bcl-2-like protein 10 (Homo sapiens), sequence (Q9HD36 whole entry, looked up): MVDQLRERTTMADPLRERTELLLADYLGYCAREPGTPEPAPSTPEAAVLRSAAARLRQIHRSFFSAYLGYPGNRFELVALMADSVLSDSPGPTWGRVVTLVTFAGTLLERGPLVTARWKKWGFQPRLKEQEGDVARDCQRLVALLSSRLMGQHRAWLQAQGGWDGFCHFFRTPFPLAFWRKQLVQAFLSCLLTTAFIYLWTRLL
Bcl-2-related protein A1 (Homo sapiens), sequence (Q16548 whole entry, looked up): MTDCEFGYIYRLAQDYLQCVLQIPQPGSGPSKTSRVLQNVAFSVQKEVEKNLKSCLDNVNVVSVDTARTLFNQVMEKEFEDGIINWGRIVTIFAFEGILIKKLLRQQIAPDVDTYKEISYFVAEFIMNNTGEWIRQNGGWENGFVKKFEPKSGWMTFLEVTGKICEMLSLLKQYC

For `Cc1cc(N)ccc1N1CCCC1`, the EC50 in assay [1] is > 141000 nM (inactive). Also, the percent span result in assay [2] (Bfl1 mutant) and in assay [2] (Bfl1 wildtype) was “inactive” in each case. Further, in assay [2] (setting [3]), the negative-log EC50 (pEC50) was 5.73.
For `CCOC(=O)CS(=O)(=O)c1nc(-c2ccccc2)cc(C(F)(F)F)n1`, the percent span entry in assay [1], in assay [2] (Bfl1 mutant) and in assay [2] (Bfl1 wildtype) was “inactive” in each case. Besides, in assay [2] (setting [3]), the pEC50 was 6.44.
Turning to `Cc1ccc(-c2cc(-c3ccc(F)cc3)c(C#N)c(N)n2)o1`, the percent span entry in assay [1], in assay [2] (Bfl1 mutant) and in assay [2] (Bfl1 wildtype) was “inactive” in each case. The pEC50 in assay [2] (setting [3]) is 5.82.
As to `CCN1C(=O)/C(=C\C=C2/C=CC=CN2CC)SC1=S`, the percent span result in assay [1], in assay [2] (Bfl1 mutant) and in assay [2] (Bfl1 wildtype) was “inactive” in each case. Also, the pEC50 in assay [2] (setting [3]) was 6.32.
Take `COc1cccc(-c2cc(C(F)(F)F)nc(S(C)(=O)=O)n2)c1`: the percent span result in assay [1], in assay [2] (Bfl1 mutant) and in assay [2] (Bfl1 wildtype) was “inactive” throughout. In assay [2] (setting [3]), the pEC50 is 6.59.
Consider `O=C1C(Cl)=C(N2CCN(c3ccccc3[N+](=O)[O-])CC2)C(=O)c2ccccc21`, for which the percent span result in assay [1], in assay [2] (Bfl1 mutant) and in assay [2] (Bfl1 wildtype) was “inactive” in each case. In addition, the pEC50 in assay [2] (setting [3]) is 6.38.
Turning to `CC(=O)c1ccc(NC(=O)c2ccc3nc(-c4ccco4)c(-c4ccco4)nc3c2)cc1`, the EC50 result in assay [1] was “inactive”. In addition, the percent span result in assay [2] (Bfl1 mutant) and in assay [2] (Bfl1 wildtype) was “inactive” throughout. The pEC50 in assay [2] (setting [3]) was 5.67.
In the case of `Oc1ccc(NCc2ccccc2OCc2ccccc2)cc1`, the percent span entry in assay [1], in assay [2] (Bfl1 mutant) and in assay [2] (Bfl1 wildtype) was “inactive” in each case. This compound gave a pEC50 in assay [2] (setting [3]) of 6.21.
As for `O=C(Nc1ccc2nc(-c3ccco3)c(-c3ccco3)nc2c1)N1CCCCCC1`, the values for the pEC50 in assay [1] and in assay [2] (setting [3]) were 4.87 and 6.46, respectively. Moreover, the percent span result in assay [2] (Bfl1 mutant) and in assay [2] (Bfl1 wildtype) was “inactive” in each case.
Turning to `CN1CCN(C2=C(Cl)C(=O)N(c3ccc(Cl)c(Cl)c3)C2=O)CC1`, the percent span entry in assay [1], in assay [2] (Bfl1 mutant) and in assay [2] (Bfl1 wildtype) was “inactive” throughout.
For `Cc1cc(-c2cc(-c3ccc(Cl)cc3)nc(N)c2C#N)co1`, the percent span result in assay [1] and in assay [2] (Bfl1 mutant) was “inactive” each time. Besides, in assay [2] (Bfl1 wildtype), the EC50 is > 104000 nM (inactive). For the same compound, the pEC50 in assay [2] (setting [3]) is 5.97.
With `CC(C)c1nnc(NC(=O)CCS(=O)(=O)c2nc(-c3cccs3)cc(C(F)(F)F)n2)s1`, the percent span entry in assay [1], in assay [2] (Bfl1 mutant) and in assay [2] (Bfl1 wildtype) was “inactive” throughout.
Regarding `O=C1NC(=O)C2(Cc3c(nc4ccccn4c3=O)N3CCCCCC32)C(=O)N1Cc1ccccc1` (stereo unspecified), the percent span result in assay [1], in assay [2] (Bfl1 mutant) and in assay [2] (Bfl1 wildtype) was “inactive” throughout.
Take `Cc1cc(C)nc(/N=C(/N)Nc2cccc(N)c2)n1`: the percent span entry in assay [1], in assay [2] (Bfl1 mutant) and in assay [2] (Bfl1 wildtype) was “inactive” in each case.
`CNC(CC(=O)c1ccc([N+](=O)[O-])cc1)C(Cl)(Cl)Cl` (stereo unspecified): the percent span result in assay [1], in assay [2] (Bfl1 mutant) and in assay [2] (Bfl1 wildtype) was “inactive” in each case. The same compound had a pEC50 in assay [2] (setting [3]) of 7.50.
As for `CCOC(=O)CCS(=O)(=O)c1nc(-c2ccccc2)cc(C(F)(F)F)n1`, the percent span entry in assay [1], in assay [2] (Bfl1 mutant) and in assay [2] (Bfl1 wildtype) was “inactive” in each case.
`Cc1ccc(-c2cc(-c3ccc(C)o3)nc(N)c2C#N)cc1`: the percent span entry in assay [1], in assay [2] (Bfl1 mutant) and in assay [2] (Bfl1 wildtype) was “inactive” each time. This compound also showed a pEC50 in assay [2] (setting [3]) of 5.90.
In the case of `Cc1ccc(C=NNC(=O)CSc2nnc(-c3ccc(Cl)cc3)n2-c2ccccc2)o1`, the pEC50 in assay [1] was 5.64. For the same compound, the percent span entry in assay [2] (Bfl1 mutant) and in assay [2] (Bfl1 wildtype) was “inactive” in each case.
On to `CN1CCN(C2=C(Cl)C(=O)N(c3cccc(Cl)c3)C2=O)CC1`, for which the percent span result in assay [1], in assay [2] (Bfl1 mutant) and in assay [2] (Bfl1 wildtype) was “inactive” each time.
Regarding `Cc1ccc(C)n1-c1ccc(Br)cc1C(=O)O`, the percent span result in assay [1], in assay [2] (Bfl1 mutant) and in assay [2] (Bfl1 wildtype) was “inactive” each time.
Take `CNC1CCC(Br)CC(C(=O)/C=C/c2cccc(OC)c2OC)C1=O` (stereo unspecified): the percent span entry in assay [1] was “inactive”. Also, in assay [2] (Bfl1 mutant), the EC50 result was “inactive”. The pEC50 is 5.04 in assay [2] (Bfl1 wildtype) and 4.74 in assay [2] (setting [3]).
